Test results reported in patent US7501398B2, “Inhibitor of the folding of the HIV-1-protease as antiviral agent” (priority 2005, dated 2009).

How the values were obtained:
[1] = biological target: T1, HIV-1-Protease (Human immunodeficiency virus type 1 group M subtype B, UniProt P04585, C555A/C583A/L521I/L551I/Q495K); conditions: protease:peptide 1:3; protease alone 79%
Description: Ultraviolet CD spectra were recorded on a Jasco J-810 spectropolarimeter in nitrogen atmosphere at room temperature using 0.1 cm path-length quartz cell. Each spectrum was recorded between 260-200 nm. The data were collected at a rate of 10 nm/min with a wavelength step of 0.2 nm and a time constant of 2 s. The spectra were corrected with respect to the baseline and normalized to the aminoacidic concentration. The protein and the peptide were dissolved in a 20 mM phosphate buffer with 0.8 M NaCl at the same concentration used for the activity assays. The CD spectra were analyzed in terms of contribution of secondary structure elements using the K2D method based on comparison with CD spectra of proteins and peptides with known secondary structure.
The conformational properties of the inhibited protease have been investigated by means of UV circular dichroism experiments.

[2] = biological target: T1, HIV-1-Protease; assay: biochemical; assay type: biochemical; parameters: Recombinant HIV-1-Protease, expressed in E. Coli; purchased Sigma P7338; host or cells: E. coli; conditions: for Ki: pH 6, 37 °C; for variation in the kinetic parameters with respect to the uninhibited case: control peptides used in the same way as p-S8
Description: Recombinant HIV-1-Protease, expressed in E. Coli (Sigma Cat. no. P7338)contained five mutations to restrict autoproteolysis (Q7K, L33I, […]) and to restrict cysteine thiol oxidation (C67A and C95A). The enzyme was stored at (−70° C. as solution with concentration 25 mg/63 mL in dilute HCl, (pH=1.6)). A chromogenic substrate for HIV-1-PR (Sigma Cat. no. H5535) was obtained as a 1 mg desiccate, diluted with 0.1 ml of DMSO, and stored at −20° C. Protease assisted cleavage between the Nle and the Phe(NO2) residues of substrate entails a blue-shift of the absorption maximum (277 nm to 272 nm). It can be adequately monitored observing the continuous decrease of absorbance at […]. […] Res. Comm 168:274-280.
After that 1 mg of inhibitor peptide was dissolved in […] of DMSO, 4 ml of this solution were then diluted with 16 ml of DMSO and 180 ml of the buffer used for assay.
The buffer was prepared by adding […] NaCl, 1 mM EDTA and 1 mM dithiothreitol to a 20 mM phosphate buffer (pH 6).
The sequences of these control peptides are […] (SEQ ID NO:2) and […] (SEQ ID NO:3) corresponding to fragments 61-70 and 9-19, respectively, of the HIV-1-PR sequence, as well as the […] (SEQ ID NO:4) sequence, which is not related in any way to the protease.
Each measure was performed recording the absorbance at 300 nm (4.13 eV) in a standard UV-vis spectrophotometer (Jasco V-560). […] The sample in the cuvette was exposed to a constant temperature (37±0.05° C.) provided by continuous circulation of water from a water bath to the cell holder via a circulation pump.
After proper thermal stabilization of the substrate dissolved in the buffer (pH 6), the absorbance at 300 nm was recorded. We performed 6 measures spanning a range of substrate concentrations from 50 μM to 250 μM. The reaction was initiated by adding 2.78 μg of enzyme and recording the absorbance decrease at 300 nm for 1200 sec. In all the reported measures the enzyme has thus a nominal concentration of 1.8 μM. Since, to our knowledge, no accurate measure has been published of the dimerization constant of HIV-1-PR at pH=6.0, it is difficult to estimate precisely the active site concentration in our assay.
In all the reported measures the final concentration of inhibitor was [I0]=[…]. The Absorbance decrease at 300 nm was recorded for 1200 sec.

[3] = enzyme:peptide 1:3, pH 6, 37 °C

| Molecule | beta-sheet content of protease plus peptide (CD) [1] | inhibition mechanism [2] | Ki ([2]; dissociation constant KI (inhibitor-free enzyme)) | Ki ([2]; dissociation constant K′I (inhibitor-substrate-enzyme complex)) | apparent dissociation constant K′M of the inhibited reaction [2, 3] | maximum velocity vmax of the inhibited reaction [2, 3] | variation in the kinetic parameters with respect to the uninhibited case [2] | initial velocity v0 of the reaction in presence of peptide ([2]; [S0]=125 mM (FIG. 7(b))) |
| --- | --- | --- | --- | --- | --- | --- | --- | --- |
| CC[C@H](C)[C@H](NC(=O)[C@H](CCC(N)=O)NC(=O)[C@@H](NC(=O)[C@H](CC(C)C)NC(=O)[C@H](CC(C)C)NC(=O)[C@H](CC(N)=O)NC(=O)[C@H](CCCNC(=N)N)NC(=O)CNC(=O)[C@@H](NC(=O)[C@@H](NC(=O)[C@H](CC(N)=O)NC(C)=O)[C@@H](C)CC)[C@@H](C)CC)[C@@H](C)O)C(N)=O [p-S8, 83N, 84I, 85I, 86G, 87R, 88N, 89L, 90L, 91T, 92Q, 93I] | 45% | non-competitive | 380 ± 810 nM | 180 ± 234 nM | 332 ± 191 mM | 0.026 ± 0.011 mM/s | – | – |
| LSQETFDLWKLLPEN (Designed Peptide) [K3, reference compound] | – | – | – | – | – | – | no appreciable variation | – |
| QILIEICGHK (Fragment 61-70 of the HIV-1-PR sequence) [K1, reference compound] | – | – | – | – | – | – | no appreciable variation | 0.051 µM/s |
